# Experimental data: patent EP1285918A1, “C7 Ester substituted taxanes as antitumor agents” (Florida State University Research Foundation, Inc., priority 2001, dated 2003)
# Like-named read-outs stand apart in the source and are kept apart here.
# Assays:
# [1] = tested on: A375 Human Melanoma Xenograft; settings: 10 mice/group, study end Day 60
# Description: Female nu/nu mice (6-8 weeks of age; implanted subcutaneously with 1 mm^3 A375 melanoma fragments in the flank) were sorted into one control and four treatment groups of ten mice each (group mean tumor size of 96-98 mg). […] The study was terminated on Day 60.
# The mean days of survival is the number of days after which a neoplasm reached a size of 2.0 g and the animal was euthanized. A complete response is obtained if the tumor is not palpable at the end of the study. A partial response is obtained if the tumor shrinks to a size smaller than its size on Day 1 of the study.
# [2] = tested on: HCT116 human colon carcinoma xenograft; settings: 10 mice/group, study end Day 60
# From the text: Six groups consisting of ten mice in each group were made up of female Nu/Nu mice (8-9 weeks of age; implanted with 1 mm^3 HCT116 human […] carcinoma fragments in the flank). Another six groups consisting of ten mice in each group were made up of male Nu/Nu mice (6-7 weeks of age; implanted with 1 mm^3 HCT116 human […] carcinoma fragments in the flank). […] The study was terminated on Day 60.
# The results are summarized in Table 19 for the female mice and Table 20 for the male mice. Included are mean days of survival (MDS), number of toxic deaths, number of survivors, number of complete or partial responses, and number with stable disease. The mean days of survival is the number of days after which an […] neoplasm reached a size of 1.5 g and the animal was euthanized. A complete response is obtained if the tumor is not palpable at the end of the study. A partial response is obtained if the tumor shrinks to a size smaller than its size on Day 1 of the study. […]
# [3] = tested on: SKMES human lung cancer xenograft; settings: for Complete Responses / Partial Responses / Stable Disease / Toxic Deaths / MDS (n) / % Total Response: 6 mice/group, study end Day 62; for MDS (n): days until tumor reached 2.0 g; for MDS: 2.0 g cut-off
# Description: Female Nu/Nu mice (6-8 weeks of age; implanted with 1 mm^3 SKMES lung carcinoma fragments in the flank) were sorted into treatment groups of six mice each. […] Treatment was administered as a single bolus on Day 1, and the study was terminated on Day 62.
# The mean days of survival is the number of days after which a SKMES neoplasm reached a size of 2.0 g and the animal was euthanized. A complete response is obtained if the tumor is not palpable at the end of the study. A partial response is obtained if the tumor shrinks to a size smaller than its size on Day 1 of the study.
# [4] = tested on: HCT116 Human Colon Carcinoma Xenograft; settings: HCT116, i.v. Day 1 (Taxol 36 mg/kg split dose, 1393 73 mg/kg single dose)
# [5] = oral 36.5 mg/kg on Days 1, 15, 29 and 43 (q14dx3, cumulative 109.5 mg/kg)
# [6] = oral 73 mg/kg on Day 1, then 21.9 mg/kg on Days 11, 21, 31 and 41 (cumulative 160.6 mg/kg)
# [7] = female mice, 104 mg/kg i.v. in 5% ethanol and 95% Liposyn II (Group 4)
# [8] = female mice, 104 mg/kg i.v. in 5% ethanol and 95% Liposyn III (Group 5)
# [9] = female mice, 104 mg/kg oral in 5% ethanol, 5% Cremophor and 90% isotonic saline (Group 6)
# [10] = male mice, 73 mg/kg i.v. in 5% ethanol and 95% Liposyn II (Group 4)
# [11] = male mice, 73 mg/kg i.v. in 5% ethanol and 95% Liposyn III (Group 5)
# [12] = male mice, 73 mg/kg oral in 5% ethanol, 5% Cremophor and 90% isotonic saline (Group 6)
# [13] = 5.2 mg/kg single IV bolus Day 1
# [14] = 5.2 mg/kg single oral bolus Day 1
# [15] = 10.4 mg/kg single IV bolus Day 1
# [16] = 10.4 mg/kg single oral bolus Day 1
# [17] = 20.8 mg/kg single IV bolus Day 1
# [18] = 20.8 mg/kg single oral bolus Day 1
# [19] = 42 mg/kg single oral bolus Day 1
# [20] = 73 mg/kg single oral bolus Day 1
# [21] = 104 mg/kg single IV bolus Day 1
# [22] = 104 mg/kg single oral bolus Day 1
structure (smiles),measurement,setting,value
"CCC(=O)O[C@H]1C[C@H]2OC[C@@]2(OC(C)=O)[C@H]2[C@H](OC(=O)c3ccccc3)[C@]3(O)C[C@H](OC(=O)[C@H](O)[C@@H](NC(=O)OC(C)(C)C)c4ccco4)C(C)=C([C@@H](O)C(=O)[C@]12C)C3(C)C [Compound 1393, 3'-Desphenyl-3'-(2-furyl)-7-propionyl taxotere]",Complete Response,[1]; 104 mg/kg single oral bolus,9
same,Partial Response,[1]; 104 mg/kg single oral bolus,0
same,Stable Disease,[1]; 104 mg/kg single oral bolus,0
same,Toxic Deaths,[1]; 104 mg/kg single oral bolus,0
same,Complete Response,[1]; [5],0
same,Partial Response,[1]; [5],1
same,Stable Disease,[1]; [5],3
same,Toxic Deaths,[1]; [5],0
same,Complete Response,[1]; [6],8
same,Partial Response,[1]; [6],1
same,Stable Disease,[1]; [6],0
same,Toxic Deaths,[1]; [6],1
same,Partial Responses,[2]; [7],3
same,Stable Disease,[2]; [7],2
same,Toxic Deaths,[2]; [7],0
same,Complete Responses,[2]; [8],5
same,Partial Responses,[2]; [8],3
same,Stable Disease,[2]; [8],2
same,Toxic Deaths,[2]; [8],0
same,Complete Responses,[2]; [9],4
same,Partial Responses,[2]; [9],3
same,Stable Disease,[2]; [9],2
same,Toxic Deaths,[2]; [9],0
same,Complete Responses,[2]; [10],7
same,Partial Responses,[2]; [10],1
same,Stable Disease,[2]; [10],2
same,Toxic Deaths,[2]; [10],0
same,Complete Responses,[2]; [11],6
same,Partial Responses,[2]; [11],0
same,Stable Disease,[2]; [11],2
same,Toxic Deaths,"[2]; male mice, 73 mg/kg i.v. in 5% ethanol and 95% Liposyn III (Group 5), footnote: one death due to an unknown reason",2^a
same,Complete Responses,[2]; [12],6
same,Partial Responses,[2]; [12],3
same,Stable Disease,[2]; [12],1
same,Toxic Deaths,[2]; [12],0
same,Complete Responses,[3]; [13],0
same,Partial Responses,[3]; [13],0
same,Stable Disease,[3]; [13],0
same,Toxic Deaths,[3]; [13],0
same,MDS (n),[3]; [13],10.5 ± 0.9 (6) days
same,% Total Response,[3]; [14],0%
same,Complete Responses,[3]; [14],0
same,Partial Responses,[3]; [14],0
same,Stable Disease,[3]; [14],0
same,Toxic Deaths,[3]; [14],0
same,MDS (n),[3]; [14],9.2 ± 0.8 (6) days
same,Complete Responses,[3]; [15],0
same,Partial Responses,[3]; [15],0
same,Stable Disease,[3]; [15],0
same,Toxic Deaths,[3]; [15],0
same,MDS (n),[3]; [15],16.3 ± 1.3 (6) days
same,% Total Response,[3]; [16],0%
same,Complete Responses,[3]; [16],0
same,Partial Responses,[3]; [16],0
same,Stable Disease,[3]; [16],0
same,Toxic Deaths,[3]; [16],0
same,MDS (n),[3]; [16],9.1 ± 0.7 (6) days
same,% Total Response,[3]; [17],0%
same,Complete Responses,[3]; [17],0
same,Partial Responses,[3]; [17],0
same,Stable Disease,[3]; [17],0
same,Toxic Deaths,[3]; [17],0
same,MDS (n),[3]; [17],23.2 ± 1.8 (6) days
same,% Total Response,[3]; [18],0%
same,Complete Responses,[3]; [18],0
same,Partial Responses,[3]; [18],0
same,Stable Disease,[3]; [18],0
same,Toxic Deaths,[3]; [18],0
same,MDS (n),[3]; [18],9.6 ±0.6 (6) days
same,% Total Response,[3]; 42 mg/kg single IV bolus Day 1,66.7%
same,Complete Responses,[3]; 42 mg/kg single IV bolus Day 1,3
same,Partial Responses,[3]; 42 mg/kg single IV bolus Day 1,1
same,Stable Disease,[3]; 42 mg/kg single IV bolus Day 1,0
same,Toxic Deaths,[3]; 42 mg/kg single IV bolus Day 1,0
same,% Total Response,[3]; [19],0%
same,Complete Responses,[3]; [19],0
same,Partial Responses,[3]; [19],0
same,Stable Disease,[3]; [19],0
same,Toxic Deaths,[3]; [19],0
same,MDS (n),[3]; [19],14.5 ± 1.1 (6) days
same,% Total Response,[3]; 73 mg/kg single IV bolus Day 1,100%
same,Complete Responses,[3]; 73 mg/kg single IV bolus Day 1,3
same,Partial Responses,[3]; 73 mg/kg single IV bolus Day 1,3
same,Stable Disease,[3]; 73 mg/kg single IV bolus Day 1,0
same,Toxic Deaths,[3]; 73 mg/kg single IV bolus Day 1,0
same,% Total Response,[3]; [20],40%
same,Complete Responses,[3]; [20],2
same,Partial Responses,[3]; [20],0
same,Stable Disease,[3]; [20],0
same,Toxic Deaths,[3]; [20],1
same,MDS (n),[3]; [20],36.3 ±1.5 (3) days
same,% Total Response,[3]; [21],100%
same,Complete Responses,[3]; [21],5
same,Partial Responses,[3]; [21],1
same,Stable Disease,[3]; [21],0
same,Toxic Deaths,[3]; [21],0
same,% Total Response,[3]; [22],83.3%
same,Complete Responses,[3]; [22],4
same,Partial Responses,[3]; [22],1
same,Stable Disease,[3]; [22],0
same,Toxic Deaths,[3]; [22],0
same,activity,"[3]; SKMES, 1393 orally, lower doses (20.8, 10.4, 5.2 mg/kg)",not active
same,MDS,"[3]; SKMES, 1393 single IV bolus 10.4 mg/kg (Group 7)",16.3 days
same,MDS,"[3]; SKMES, 1393 single IV bolus 20.8 mg/kg (Group 6)",23.2 days
same,Partial Response,"[4]; 5 mice/group, Day 60",4
same,Stable Disease,"[4]; 5 mice/group, Day 60",0
same,Mean Score,"[4]; tumor score 1 to 10, group mean",9.2 ± 0.2
